Measured values reported in ChEMBL document CHEMBL2021797, “Synthesis and structure-activity relationship study of antimicrotubule agents phenylahistin derivatives with a didehydropiperazine-2,5-dione structure” (J Med Chem, 2012).

How the values were obtained:
HT-29 = assay: Cytotoxicity against human HT-29 cells after 48 hrs using resazurin by microplate fluorometer analysis; format: functional, cell-based; conditions: HT-29, 48 h
HeLa [1] = assay: Induction of cell cycle arrest in human HeLa cells assessed as accumulation at G2/M phase at 10 nM after 18 hrs by propidium iodide based flow cytometric analysis (reference value: 16.2 %); format: functional
HeLa [2] = assay: Induction of cell cycle arrest in human HeLa cells assessed as accumulation at G2/M phase at 30 nM after 18 hrs by propidium iodide based flow cytometric analysis (reference value: 16.2 %); format: functional
HeLa [3] = assay: Induction of cell cycle arrest in human HeLa cells assessed as accumulation at G0/G1 phase at 30 nM after 18 hrs by propidium iodide based flow cytometric analysis (reference value: 43.9 %); format: functional
HeLa [4] = assay: Induction of cell cycle arrest in human HeLa cells assessed as accumulation at S phase at 30 nM after 18 hrs by propidium iodide based flow cytometric analysis (reference value: 39.9 %); format: functional
[5] = Binding affinity to bovine tubulin after 1 hr by spectrofluorometric analysis; set-up: species or system Bos taurus
HeLa [6] = assay: Induction of cell cycle arrest in human HeLa cells assessed as accumulation at G0/G1 phase at 10 nM after 18 hrs by propidium iodide based flow cytometric analysis (reference value: 43.9 %); format: functional
HeLa [7] = assay: Induction of cell cycle arrest in human HeLa cells assessed as accumulation at S phase at 10 nM after 18 hrs by propidium iodide based flow cytometric analysis (reference value: 39.9 %); format: functional
[8] = Inhibition of bovine brain tubulin polymerization by thermostatic spectrophotometer; set-up: species or system Bos taurus
HeLa [9] = assay: Induction of cell cycle arrest in human HeLa cells assessed as accumulation at G0/G1 phase at 3 nM after 18 hrs by propidium iodide based flow cytometric analysis (reference value: 43.9 %); format: functional
HUVEC [10] = assay: Induction of microtubule depolymerization in HUVEC after 30 mins by DAPI staining method; format: cell-based; conditions: Homo sapiens
HeLa [11] = assay: Induction of cell cycle arrest in human HeLa cells assessed as accumulation at G2/M phase at 3 nM after 18 hrs by propidium iodide based flow cytometric analysis (reference value: 16.2 %); format: functional
HUVEC [12] = assay: Cytotoxicity against HUVEC after 48 hrs using resazurin by microplate fluorometer analysis; format: cell-based; conditions: Homo sapiens
HeLa [13] = assay: Induction of cell cycle arrest in human HeLa cells assessed as accumulation at S phase at 3 nM after 18 hrs by propidium iodide based flow cytometric analysis (reference value: 39.9 %); format: functional
Mus musculus = assay: Toxicity in nu/nu mouse assessed as weight loss at 1.25 to 7.5 mg/kg, ip after 40 days; format: organism-based; conditions: in vivo, 960 h
HeLa [14] = assay: Induction of cell cycle arrest in human HeLa cells assessed as accumulation at G0/G1 phase at 100 nM after 18 hrs by propidium iodide based flow cytometric analysis (reference value: 43.9 %); format: functional
HeLa [15] = assay: Induction of cell cycle arrest in human HeLa cells assessed as accumulation at S phase at 100 nM after 18 hrs by propidium iodide based flow cytometric analysis (reference value: 39.9 %); format: functional
HeLa [16] = assay: Induction of cell cycle arrest in human HeLa cells assessed as accumulation at G2/M phase at 100 nM after 18 hrs by propidium iodide based flow cytometric analysis (reference value: 16.2 %); format: functional
DU-145 [17] = assay: Antitumor activity against human DU145 cells xenografted in nu/nu mouse assessed as tumor growth inhibition at […], ip administered on day 1, 3, 5, 8 and […] measured on day 40 relative to control; format: functional; conditions: DU-145, ip, read-out: TGI
DU-145 [18] = assay: Antitumor activity against human DU145 cells xenografted in nu/nu mouse assessed as tumor growth inhibition at 3.75 mg/kg, ip administered on day 1, 3, 5, 8 and […] measured on day 40 relative to control; format: functional; conditions: DU-145, ip, route intraperitoneal, read-out: TGI
DU-145 [19] = assay: Antitumor activity against human DU145 cells xenografted in nu/nu mouse assessed as tumor growth inhibition at 7.5 mg/kg, ip administered on day 1, 3, 5, 8 and […] measured on day 40 relative to control; format: functional; conditions: DU-145, ip, route intraperitoneal, read-out: TGI
DU-145 [20] = conditions: Homo sapiens

For `COc1cc(/C=c2\[nH]c(=O)/c(=C/c3nc[nH]c3C(C)(C)C)[nH]c2=O)cc(OC)c1`, which IC50 (HT-29) is on record?
The IC50 was 45.4 nM.

What does the source list for `COc1cc2c(c(OC)c1OC)-c1ccc(OC)c(=O)cc1[C@@H](NC(C)=O)CC2` [COLCHICINE]?
Activity (HeLa [1]): 21%; Activity (HeLa [2]): 89.9%; Activity (HeLa [3]): 1.3%; Activity (HeLa [4]): 8.9%; Kd [5]: […]; IC50 (HT-29): 16 nM; Activity (HeLa [6]): 47.5%; Activity (HeLa [7]): 31.5%

With `COc1ccc(/C=C\c2cc(OC)c(OC)c(OC)c2)cc1O` [COMBRETASTATIN A4] as the compound, how does the IC50 [8] read?
The IC50 was 550 nM.

What about the Activity (HeLa [1]) of the same compound?
Its Activity is 90.7%.

And the Activity (HeLa [9])?
The Activity was 34.6%.

And the ED100 (HUVEC [10])?
The ED100 was 10 nM.

And the Activity (HeLa [6])?
The Activity was 0.4%.

And the Activity (HeLa [11])?
Its Activity is 37.4%.

What about the Activity (HeLa [7]) of the same compound?
Its Activity is 8.8%.

And the IC50 (HUVEC [12])?
The IC50 was 2.4 nM.

And the Activity (HeLa [13])?
Its Activity is 28.1%.

With `CC(C)(C)c1[nH]cnc1/C=c1\[nH]c(=O)/c(=C/c2ccccc2)[nH]c1=O` [PLINABULIN] as the compound, how does the Activity (Mus musculus) read?
Its Activity is “Non-toxic”.

What about the Activity (HeLa [14]) of the same compound?
The Activity was 0%.

What about the Activity (HeLa [15]) of the same compound?
Its Activity is 2.4%.

What about the Activity (HeLa [16]) of the same compound?
Its Activity is 97.6%.

And the IC50 [8]?
Its IC50 is 1310 nM.

What about the Activity (HeLa [1]) of the same compound?
Its Activity is 17.9%.

And the Activity (HeLa [2])?
The Activity was 55.3%.

And the Activity (HeLa [3])?
The Activity was 4.2%.

What about the Activity (HeLa [4]) of the same compound?
The Activity was 40.4%.

And the Kd [5]?
Its Kd is 1000 nM.

What about the inhibition in vivo at […] (DU-145 [17]) of the same compound?
Its inhibition in vivo at […] is 29%.

And the ED100 (HUVEC [10])?
The ED100 was 3 nM.

What about the Activity (HeLa [6]) of the same compound?
The Activity was 44.6%.

What about the Activity (HeLa [7]) of the same compound?
The Activity was 37.5%.

And the IC50 (HUVEC [12])?
The IC50 was 11 nM.

And the inhibition in vivo at 3.75 mg/kg (DU-145 [18])?
Its inhibition in vivo at 3.75 mg/kg is 38.6%.

What about the inhibition in vivo at 7.5 mg/kg (DU-145 [19]) of the same compound?
The inhibition in vivo at 7.5 mg/kg was 58.5%.

And the TGI (DU-145 [20])?
Its TGI is “Dose-dependent effect”.
